Where a name gives a salt, the structure may show the parent alone.
Tests used:
[1] = target: T1, HCV polymerase (NS5B) type 1b (Hepatitis C virus genotype 1b, UniProt P26663); assay: Assay of enzyme (HCV polymerase) inhibitory activity, type 1b enzyme; type: biochemical, HCV BK strain (type 1b); conditions: HCV polymerase inhibitory activity (IC50), 1b, type 1b enzyme 0.5 μg/ml, 25° C., 60 min
T1 construct: a region encoding NS5B (J Virol 1991 March, 65(3), 1105-13, 544 amino acids after deletion of 47 amino acids on the C-terminal); 6xHis (C); made in house; host or cells: Escherichia coli
In short: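 Rxn: NS5B 1b (BK, ΔC47, His6) 0.5 μg/ml; substrate RNA 5 μg/ml; ATP/GTP/CTP 50 μM, UTP 2 μM + [5,6-3H]UTP; 20 mM Tris pH 7.5, 5 mM MgCl2, 50 mM NaCl, 1 mM EDTA/DTT. 25 °C, 60 min. Stop with TCA/pyrophosphate, filter, scintillation count; IC50 vs. untreated.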

[2] = target: T2, HCV polymerase (NS5B) type 1a (Hepatitis C virus genotype 1a, UniProt P26664); assay: Assay of enzyme (HCV polymerase) inhibitory activity, type 1a enzyme; type: biochemical, HCV type 1a (cloned from the blood of patients); conditions: HCV polymerase inhibitory activity (IC50), 1a, type 1a enzyme 1.5 μg/ml, 25° C., 60 min
T2 construct: made in house; host or cells: Escherichia coli (by the 'similar method' of the 1b enzyme)
In short: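 NS5B Δ47 C-term His6 (type 1a, 1.5 μg/ml); substrate RNA 5 μg/ml; ATP/GTP/CTP 50 μM, UTP 2 μM + [5,6-3H]UTP; Tris pH 7.5, MgCl2 5 mM; 25° C, 60 min. TCA/pyrophosphate stop, GF/B filter, scintillation. IC50 vs no-compound control.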

Compound | IC50 [1] | IC50 [2]
CC(C)c1ccc(CNC(=O)[C@H]2CN(C(=O)Nc3nnco3)CCN2S(=O)(=O)c2ccc(C(F)(F)F)cc2)cc1 [Example 348, (R)-4-(4-trifluoromethyl-benzenesulfonyl)-piperazine-1,3-dicarboxylic acid 3-(4-isopropyl-benzylamide) 1-[1,3,4]oxadiazol-2-ylamide] | 100 to 1000 nM | 100 to 1000 nM
CC(C)c1ccc(CNC(=O)[C@H]2CN(c3cc(C(=O)O)ccn3)CCN2S(=O)(=O)c2ccc(C(F)(F)F)cc2)cc1 [Example 349, 2-[(R)-3-(4-isopropyl-benzylcarbamoyl)-4-(4-trifluoromethyl-benzenesulfonyl)-piperazin-1-yl]-isonicotinic acid trifluoroacetate] | 100 to 1000 nM | > 1000 nM
CC(C)c1ccc(S(=O)(=O)N2CCN(C(N)=O)CC2C(=O)NCc2ccc(C(F)(F)F)cc2)cc1 (centres unmarked) [Example 350, 4-(4-isopropyl-benzenesulfonyl)-piperazine-1,3-dicarboxylic acid 1-amide 3-(4-trifluoromethyl-benzylamide)] | > 1000 nM | > 1000 nM
CC(=O)N1CCN(S(=O)(=O)c2cc(Cl)cc(Cl)c2)C(C(=O)NCc2ccc(C(F)(F)F)cc2)C1 (centres unmarked) [Example 351, 4-acetyl-1-(3,5-dichloro-benzenesulfonyl)-piperazine-2-carboxylic acid 4-trifluoromethyl-benzylamide] | > 1000 nM | > 1000 nM
CC(C)c1ccc(CNC(=O)[C@H]2CN(c3nccn3C)CCN2S(=O)(=O)c2ccc(C(F)(F)F)cc2)cc1 [Example 352, (R)-4-(1-methyl-1H-imidazol-2-yl)-1-(4-trifluoromethyl-benzenesulfonyl)-piperazine-2-carboxylic acid 4-isopropyl-benzylamide] | 100 to 1000 nM | > 1000 nM
CC(C)c1ccc(CNC(=O)[C@H]2CN(c3ncc[nH]3)CCN2S(=O)(=O)c2ccc(C(F)(F)F)cc2)cc1 [Example 353, (R)-4-(1H-imidazol-2-yl)-1-(4-trifluoromethyl-benzenesulfonyl)-piperazine-2-carboxylic acid 4-isopropyl-benzylamide] | 100 to 1000 nM | 100 to 1000 nM
CNC(=O)c1sc(N2CCN(S(=O)(=O)c3ccc(OC(F)(F)F)cc3)[C@@H](C(=O)NCc3ccc(C(C)C)cc3)C2)nc1C [Example 354, (R)-4-(4-methyl-5-methylcarbamoyl-thiazol-2-yl)-1-(4-trifluoromethoxy-benzenesulfonyl)-piperazine-2-carboxylic acid 4-isopropyl-benzylamide] | < 100 nM | < 100 nM
Cc1nc(N2CCN(S(=O)(=O)c3ccc(OC(F)(F)F)cc3)[C@@H](C(=O)NCc3ccc(C(C)C)cc3)C2)sc1C(=O)N(C)C [Example 355, (R)-4-(5-dimethylcarbamoyl-4-methyl-thiazol-2-yl)-1-(4-trifluoromethoxy-benzenesulfonyl)-piperazine-2-carboxylic acid 4-isopropyl-benzylamide] | < 100 nM | < 100 nM
Cc1cc(C2CC2)ccc1CNC(=O)[C@H]1CN(c2nc(C)c(C(=O)O)s2)CCN1S(=O)(=O)c1ccc(OC(F)(F)F)cc1 [Example 356, 2-[(R)-3-(4-cyclopropyl-2-methyl-benzylcarbamoyl)-4-(4-trifluoromethoxy-benzenesulfonyl)-piperazin-1-yl]-4-methyl-thiazole-5-carboxylic acid] | < 100 nM | < 100 nM
CC(C)c1ccc(CNC(=O)[C@H]2CN(c3ncc(C(=O)O)c(O)n3)CCN2S(=O)(=O)c2ccc(C(F)(F)F)cc2)cc1 [Example 357, 4-hydroxy-2-[(R)-3-(4-isopropyl-benzylcarbamoyl)-4-(4-trifluoromethyl-benzenesulfonyl)-piperazin-1-yl]-pyrimidine-5-carboxylic acid] | 100 to 1000 nM | > 1000 nM
Cc1nc(N2CCN(S(=O)(=O)c3ccc(OC(F)(F)F)cc3)[C@@H](C(=O)NCc3ccc(C(C)C)cc3)C2)sc1C(=O)NCC(=O)OC(C)(C)C [Example 358, ({2-[(R)-3-(4-isopropyl-benzylcarbamoyl)-4-(4-trifluoromethoxy-benzenesulfonyl)-piperazin-1-yl]-4-methyl-thiazole-5-carbonyl}-amino)-acetic acid tert-butyl ester] | < 100 nM | < 100 nM
Cc1nc(N2CCN(S(=O)(=O)c3ccc(OC(F)(F)F)cc3)[C@@H](C(=O)NCc3ccc(C(C)C)cc3)C2)sc1C(=O)NCCC(=O)OC(C)(C)C [Example 359, 3-({2-[(R)-3-(4-isopropyl-benzylcarbamoyl)-4-(4-trifluoromethoxy-benzenesulfonyl)-piperazin-1-yl]-4-methyl-thiazole-5-carbonyl}-amino)-propionic acid tert-butyl ester] | < 100 nM | < 100 nM
Cc1nc(N2CCN(S(=O)(=O)c3ccc(OC(F)(F)F)cc3)[C@@H](C(=O)NCc3ccc(C(C)C)cc3)C2)sc1C(=O)NCC(=O)O [Example 360, ({2-[(R)-3-(4-isopropyl-benzylcarbamoyl)-4-(4-trifluoromethoxy-benzenesulfonyl)-piperazin-1-yl]-4-methyl-thiazole-5-carbonyl}-amino)-acetic acid] | < 100 nM | < 100 nM
Cc1nc(N2CCN(S(=O)(=O)c3ccc(OC(F)(F)F)cc3)[C@@H](C(=O)NCc3ccc(C(C)C)cc3)C2)sc1C(=O)NCCC(=O)O [Example 361, 3-({2-[(R)-3-(4-isopropyl-benzylcarbamoyl)-4-(4-trifluoromethoxy-benzenesulfonyl)-piperazin-1-yl]-4-methyl-thiazole-5-carbonyl}-amino)-propionic acid] | < 100 nM | < 100 nM
CC(C)c1ccc(CNC(=O)[C@H]2CN(c3nc([N+](=O)[O-])n[nH]3)CCN2S(=O)(=O)c2ccc(C(F)(F)F)cc2)cc1 [Example 362, (R)-4-(5-nitro-2H-[1,2,4]triazol-3-yl)-1-(4-trifluoromethyl-benzenesulfonyl)-piperazine-2-carboxylic acid 4-isopropyl-benzylamide] | 100 to 1000 nM | > 1000 nM
CCCc1ccc(CNC(=O)[C@H]2CN(c3nc(CC)c(C(=O)O)s3)CCN2S(=O)(=O)c2ccc(OC(F)(F)F)cc2)c(C)c1 [Example 363, 4-ethyl-2-[(R)-3-(2-methyl-4-propyl-benzylcarbamoyl)-4-(4-trifluoromethoxy-benzenesulfonyl)-piperazin-1-yl]-thiazole-5-carboxylic acid] | < 100 nM | < 100 nM
Cc1cc(C(C)C)ccc1CNC(=O)[C@H]1CN(c2nc(C)c(C(=O)O)s2)CCN1S(=O)(=O)c1ccc(OC(F)(F)F)cc1 [Example 364, 2-[(R)-3-(4-isopropyl-2-methyl-benzylcarbamoyl)-4-(4-trifluoromethoxy-benzenesulfonyl)-piperazin-1-yl]-4-methyl-thiazole-5-carboxylic acid] | < 100 nM | < 100 nM
Cc1nc(N2CCN(S(=O)(=O)c3ccc(OC(F)(F)F)cc3)[C@@H](C(=O)NCc3ccc(OC(F)(F)F)cc3)C2)sc1C(=O)O [Example 365, 4-methyl-2-[(R)-4-(4-trifluoromethoxy-benzenesulfonyl)-3-(4-trifluoromethoxy-benzylcarbamoyl)-piperazin-1-yl]-thiazole-5-carboxylic acid] | < 100 nM | < 100 nM
CCc1ccc(CNC(=O)[C@H]2CN(c3nc(C)c(C(=O)O)s3)CCN2S(=O)(=O)c2ccc(OC(F)(F)F)cc2)cc1 [Example 366, 2-[(R)-3-(4-ethyl-benzylcarbamoyl)-4-(4-trifluoromethoxy-benzenesulfonyl)-piperazin-1-yl]-4-methyl-thiazole-5-carboxylic acid] | < 100 nM | < 100 nM
Cc1nc(N2CCN(S(=O)(=O)c3ccc(OC(F)(F)F)cc3)[C@@H](C(=O)NCc3ccc(C(C)(C)C)cc3)C2)sc1C(=O)O [Example 367, 2-[(R)-3-(4-tert-butyl-benzylcarbamoyl)-4-(4-trifluoromethoxy-benzenesulfonyl)-piperazin-1-yl]-4-methyl-thiazole-5-carboxylic acid] | < 100 nM | < 100 nM
CC(C)c1ccc(CNC(=O)[C@H]2CN(c3nc(N)n[nH]3)CCN2S(=O)(=O)c2ccc(C(F)(F)F)cc2)cc1 [Example 368, (R)-4-(5-amino-2H-[1,2,4]triazol-3-yl)-1-(4-trifluoromethyl-benzenesulfonyl)-piperazine-2-carboxylic acid 4-isopropyl-benzylamide] | 100 to 1000 nM | > 1000 nM
Cc1nc(N2CCN(S(=O)(=O)c3ccc(OC(F)(F)F)cc3)[C@@H](C(=O)NCc3ccc(C(C)C)cc3)C2)sc1C(=O)N[C@H](C)C(=O)O [Example 369, (R)-2-({2-[(R)-3-(4-isopropyl-benzylcarbamoyl)-4-(4-trifluoromethoxy-benzenesulfonyl)-piperazin-1-yl]-4-methyl-thiazole-5-carbonyl}-amino)-propionic acid] | < 100 nM | < 100 nM
